Patent US20080051464A1, “Protein phosphatase inhibitors” (The Cleveland Clinic Foundation, priority 2006, published 2008)

Assays:
[1] = tested on: SHP-1 substrate pLck-pY394 in Jurkat T cells; assay: induction of pLck-pY394 in Jurkat cells (SDS-PAGE/Western blotting); type: cell-based, human
Procedure: (§1) Jurkat cells in culture medium (3×10^6 cells/ml, 1 ml/tube) were treated with agents for designated times at room temperature. After brief centrifuging in a microfuge (4,000 rpm, 2 min), the cell pellet was lysed on ice for 30 min in 100 μl of cold lysis buffer (1% NP40, 50 mM Tris, pH 7.4, 150 mM NaCl, 20 mM NaF, 0.2 mM Na3VO4 and 1 mM Na3MO4) containing a cocktail of proteinase inhibitors (Sigma, 1 tablet/10 ml). The lysates were cleared by centrifuging (14,000 rpm, 10 min) in a microfuge at 4° C. to remove insoluble parts, mixed with equal volume of 2×SDS-PAGE sample buffer, boiled for 5 min and analyzed (˜3×10^5 cells/well) by SDS-PAGE/Western blotting. Relative intensities of phosphotyrosine bands were quantified through densitometry analysis.
as §1, with “blotting as described previously (23, 24).” for “blotting.”
as §1, with “blotting as described previously (17, 18).” for “blotting.”

[2] = tested on: pLck-pY505 (dephosphorylated by PTPase CD45) in Jurkat cells; assay: pLck-pY505 in Jurkat cells (Western blotting); type: cell-based, human; conditions: L5-treated Jurkat cells
Procedure: as §1

[3] = tested on: spleen pLck and IFNγ+ cells; assay: in vivo induction of spleen pLck and IFNγ+ cells in mice; design: species or system mouse
Procedure: Spleens were harvested one hour post-treatment on day 4 and processed into splenocytes, which were used for assessing pLck levels by SDS-PAGE/Western blotting and for quantification of IFNγ+ cells by ELISPOT assays. Mice were also treated with L5 (˜10 mg/kg body weight, daily, s.c., n=2) to evaluate the toxicity of the compounds in vivo.

B16 melanoma tumors = assay: B16 melanoma tumor growth in athymic nude mice; type: in vivo, mouse; conditions: 3 mg/kg/day, oral, M-F/week
Procedure: To assess L5 anti-tumor activity, C57BL/6J mice or athymic nude mice (˜8-week old, female, Taconic Farms, Germantown, N.Y.) were inoculated (s.c.) at the flanks with B16 melanoma cells (4×10^4 cells/site). Four days post-inoculation, the mice were treated with PBS (Control) or L5 (˜3 mg/kg body weight/daily, Monday—Friday/week, oral gavage). Tumor volume (n=5) was measured during the study period and calculated using the formula for a prolate spheroid. Student's t test was used for assessing the significance of tumor volume differences among differential treatment groups. Mouse viability (daily) and body weights (weekly) were also recorded during the study period. Major internal organs of the mice were inspected visually upon their termination at the end of the experiment.

## O=C1C=CC(=O)C(c2cc(Cl)ccc2Cl)=C1 [L5]
[1]
  level capable of inhibiting SHP-1 in Jurkat T cells: 10 ng/mL
  level capable of inhibiting SHP-1 in Jurkat T cells (molar): ~40 nM
[1]; 0.01 μg/ml, 10 min
  pLck-pY394 induction: 2-3 fold
[1]; 0.1, 1 or 3 μg/ml, 10 min
  pLck-pY394 induction: > 4 folds
[1]; Jurkat cells, 10 min
  effective dose for pLck-pY394 induction / intracellular SHP-1 inhibition: ≥ 0.01 μg/ml
[1]; Jurkat cells, 10 min, densitometry (FIG. 2)
  pLck-pY394 induction in comparison to untreated control: ~10 fold
[1]; by weight
  potency relative to SSG: approximately 1,000 fold
[1]; in equal molar ratios
  potency relative to SSG: ~350 fold
[2]
  pLck-pY505: little effects
[3]; 1 mg/kg of body weight
  effect on pLck: only a minor effect
[3]; ~3 mg/kg of body weight, s.c., daily, 4 days
  increase of splenocyte pLck: ~3.3 fold
[3]; ~3 mg/kg, s.c., daily, 4 days
  increase of spleen IFNγ+ cells: approximately 3 fold
B16 melanoma tumors
  B16 melanoma tumors in athymic nude mice: not inhibited
